{"source": "paper PMC12873548", "about": "“D-amino acid substitution and cyclization enhance the stability and antimicrobial activity of arginine-rich peptides” (Microbiology, 2026)", "key": {"S. aureus (ATCC12600)": {"system": "S. aureus (ATCC12600)", "assay_type": "cell-based, Staphylococcus aureus", "experimental": "The MIC of arginine-based peptides was assessed using the microbroth dilution approach. Our in vitro screening included a panel of Gram-negative bacteria, Escherichia coli (ATCC 25922 and enterohaemorrhagic O157:H7) and Pseudomonas aeruginosa (PA01 and the drug-resistant strain NCTC 13437), and Gram-positive bacteria (Staphylococcus aureus ATCC 12600). Five-millilitre overnight cultures in Lysogeny broth, prepared from single isolated colonies, were diluted to 5×10^6 c.f.u. ml^−1 mid-log phase in Mueller–Hinton (MH) broth. Next, peptide concentrations (0 to 1 mM) were serially diluted twofold in 96-well plates and incubated overnight at 37 °C with the tested bacterial strains. In each case, the MIC was determined as the lowest peptide concentration at which no detectable bacterial growth was observed, employing an absorbance-based assay using a Tecan Spark® multimode plate reader. Subsequently, 10 µl aliquots from each peptide dilution were transferred to MH agar (1.5%) plates to determine the minimum bactericidal concentration (MBC) which was assessed by establishing at which concentration no visible growth of bacteria (assessed via colony formation) on the plate was observed."}, "[1]": {"assay": "Stability in human serum by LC-MS", "assay_type": "in vitro ADME", "settings": "human serum (20% and 50%), 24 h, 37 °C; read-out LC-MS (ESI)", "experimental": "(§1) The antimicrobial activity and structural stability of arginine-rich peptides were evaluated in the presence of human serum (20% and 50 %) and 5 µM Sequencing Grade Modified Trypsin (SGMT, Promega). Briefly, fresh human blood was collected in EDTA tubes and allowed to clot at room temperature for 1 h. Serum was then collected following centrifugation at 2,000 r.p.m. for 10 min at 4 °C. Peptides were incubated with 20%, 50% human serum and 5 µM SGMT in 50 mM Tris-HCl buffer (1 mM CaCl₂, pH 7.6) for 24 h at 37 °C. After the incubation period, the solutions were further incubated with E. coli (ATCC 25922 and O157:H7), P. aeruginosa (PA01, NCTC13437) and S. aureus (ATCC12600), and the MIC was assessed as described in the ‘Antibacterial assessment’ section. Additionally, the samples were analysed using electrospray ionization MS to monitor structural changes based on the molecular weight of the peptides."}, "[2]": {"molecular_target": "T1, Sequencing Grade Modified Trypsin (Sus scrofa, UniProt P00761)", "T1 construct": "purchased Promega", "T1 sequence (P00761 9-231)": "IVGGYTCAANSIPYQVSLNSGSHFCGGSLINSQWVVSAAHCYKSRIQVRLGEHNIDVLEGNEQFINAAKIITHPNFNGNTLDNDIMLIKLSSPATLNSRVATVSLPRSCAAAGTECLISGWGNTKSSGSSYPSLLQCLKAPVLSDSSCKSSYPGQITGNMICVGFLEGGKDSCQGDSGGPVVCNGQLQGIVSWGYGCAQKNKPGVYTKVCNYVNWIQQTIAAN", "assay": "Stability with trypsin by LC-MS", "assay_type": "in vitro ADME", "settings": "5 µM SGMT trypsin, 50 mM Tris-HCl, 1 mM CaCl2, pH 7.6, 24 h, 37 °C; read-out LC-MS (ESI)", "experimental": "as §1"}}, "note": "Non-standard residues stand in square brackets, D forms with d. Residues, ends and D or L forms follow the SMILES beside them."}
{"smiles": "N=C(N)NCCC[C@@H](N)C(=O)N[C@@H](CCCNC(=N)N)C(=O)N[C@H](CCCNC(=N)N)C(=O)N[C@@H](CCCNC(=N)N)C(=O)N[C@H](Cc1ccccc1)C(=O)N[C@@H](Cc1ccccc1)C(=O)N[C@H](Cc1ccccc1)C(=O)N[C@@H](Cc1ccccc1)C(=O)O", "note": "[D-R4F4] (H-[dR]R[dR]R[dF]F[dF]F-OH)", "values": [{"measurement": "MBC", "setting": "S. aureus (ATCC12600); ATCC12600", "result": 250, "unit": "µM"}, {"measurement": "MIC", "setting": "S. aureus (ATCC12600); ATCC12600, 24 h", "result": 125, "unit": "µM"}, {"measurement": "Stability with serum proteases (LC chromatogram and mass spectrum)", "setting": "[1]", "result": "appeared at the same retention time in both the absence and presence of proteases"}, {"measurement": "Stability with trypsin (LC chromatogram and mass spectrum)", "setting": "[2]", "result": "appeared at the same retention time in both the absence and presence of proteases"}]}
